The source of these data is ChEMBL document CHEMBL6177999, “Discovery of 3-(Fluoro-imidazolyl)pyridazine Derivatives as Potent STING Agonists with Antitumor Activity” (J Med Chem, 2025).

Data set [1] concerns the target T1, Stimulator of interferon genes protein (Homo sapiens, UniProt Q86WV6). As to the kind of experiment: Displacement of 5-FAM-labeled diABZI tracer from N-terminal 6xHis-tagged human STING R232H mutant CTD extracted from Escherichia coli BL21(DE3) incubated for 30 mins by competitive binding based fluorescence polarization assay. For orientation: Fluorescence polarisation rises when a labelled molecule tumbles more slowly, as on binding a larger partner.

Data set [2] addresses T1, Stimulator of interferon genes protein. As to the kind of experiment: Displacement of 5-FAM-labeled diABZI tracer from N-terminal 6xHis-tagged wild-type human STING CTD extracted from Escherichia coli BL21(DE3) incubated for 30 mins by competitive binding based fluorescence polarization assay.
Data set [3] has as its target T2, Stimulator of interferon genes protein (Mus musculus, UniProt Q3TBT3).
T2 sequence (Q3TBT3 whole entry): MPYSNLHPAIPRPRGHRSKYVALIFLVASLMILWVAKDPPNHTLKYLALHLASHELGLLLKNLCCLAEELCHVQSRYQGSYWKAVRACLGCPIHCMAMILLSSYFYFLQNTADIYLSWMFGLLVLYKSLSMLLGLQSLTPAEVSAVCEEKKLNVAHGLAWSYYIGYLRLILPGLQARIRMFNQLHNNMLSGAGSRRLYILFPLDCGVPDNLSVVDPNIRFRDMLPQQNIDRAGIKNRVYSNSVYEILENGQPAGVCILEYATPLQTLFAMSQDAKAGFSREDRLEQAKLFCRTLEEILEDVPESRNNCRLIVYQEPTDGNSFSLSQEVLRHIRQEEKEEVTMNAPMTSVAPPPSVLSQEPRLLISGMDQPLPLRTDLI
As to the kind of experiment: Displacement of 5-FAM-labeled diABZI tracer from N-terminal 6xHis-tagged wild-type mouse STING CTD extracted from Escherichia coli BL21(DE3) incubated for 30 mins by competitive binding based fluorescence polarization assay.

The target of data set [4] is T2, Stimulator of interferon genes protein. As to the kind of experiment: Agonist activity at STING in mouse RAW-Lucia ISG cells harbouring SEAP reporter gene assessed as activation of cGAS-STING signaling pathway incubated for 24 hrs by QUANTI-Blue reagent based analysis. In general terms: In a reporter assay the amount or activity of a reporter protein is the signal.

For data set [5] the target is unchanged. As to the kind of experiment: Agonist activity at STING in mouse RAW-Lucia ISG-KO-STING cells harbouring SEAP reporter gene assessed as activation of cGAS-STING signaling pathway incubated for 24 hrs by QUANTI-Blue reagent based analysis.
The target of data set [6] is Stimulator of interferon genes protein (Homo sapiens, UniProt Q86WV6, G230A/R293Q).
In data set [7] the target is Stimulator of interferon genes protein (Homo sapiens, UniProt Q86WV6, R293Q).
The nature of data set [8]: Clearance in female C57BL/6 mouse at 10 mg/kg, iv measured up to 24 hrs by LC-MS/MS analysis. Conditions: in vivo.
For another data set, the system named is B16-F10. Description: Antitumor activity against mouse B16-F10 cells allografted in female C57BL/6 mouse assessed as tumor growth inhibition at 30 mg/kg, iv qd relative to control. Conditions: B16-F10, read-out: TGI.

Structures are written as SMILES.

T1 sequence (Q86WV6 whole entry): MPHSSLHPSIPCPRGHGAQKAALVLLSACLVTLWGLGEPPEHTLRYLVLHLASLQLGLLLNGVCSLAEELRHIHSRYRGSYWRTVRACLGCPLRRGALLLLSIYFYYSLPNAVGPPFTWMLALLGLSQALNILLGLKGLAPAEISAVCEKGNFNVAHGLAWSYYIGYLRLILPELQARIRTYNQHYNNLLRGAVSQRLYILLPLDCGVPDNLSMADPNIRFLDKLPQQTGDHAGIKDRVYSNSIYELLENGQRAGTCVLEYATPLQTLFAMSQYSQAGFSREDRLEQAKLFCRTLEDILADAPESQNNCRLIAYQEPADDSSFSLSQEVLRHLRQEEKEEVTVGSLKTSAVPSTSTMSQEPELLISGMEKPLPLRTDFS
Chain of Stimulator of interferon genes protein (Homo sapiens, UniProt Q86WV6, G230A/R293Q) (Q86WV6 whole entry G230A/R293Q): as the sequence (Q86WV6 whole entry) above, with G230A, R293Q counted along it
Chain of Stimulator of interferon genes protein (Homo sapiens, UniProt Q86WV6, R293Q) (Q86WV6 whole entry R293Q): as the sequence (Q86WV6 whole entry) above, with R293Q counted along it

Take `O=C(Nc1cc(Cl)c(F)cc1C(=O)O)c1ccc(-n2cnc(F)c2)nn1`: the IC50 is 1730 nM in [1]; 1840 nM in data set [2]; 2510 nM in [3]; 940 nM in [6]; 1910 nM in [7]. Besides, the EC50 is 46.5 µM in data set [4] and more than 100 µM in [5].
Molecule `O=C(Nc1cc(F)c(F)cc1C(=O)O)c1ccc(-n2ccnc2)nn1` showed an IC50 in data set [3] of 1870 nM. Besides, the EC50 in data set [4] and in data set [5] was more than 100 µM in each case. The clearance at 24 h in data set [8] stood at 123 mL/min/kg. In the data set with B16-F10, the inhibition in vivo at 30 mg/kg stood at 52.4%.
With `O=C(Nc1cc(Br)c(F)cc1C(=O)O)c1ccc(-n2cnc(F)c2)nn1`, the IC50 in [1] turned out to be 1360 nM; in data set [2] it was 1480 nM; in data set [3], 2640 nM; in [6], 980 nM; in [7], 1450 nM. For the same molecule, the results for the EC50 in data set [4] and in [5] were 24.6 µM and more than 100 µM, respectively.

The term IC50 denotes the concentration needed to halve the response being measured. The term EC50 denotes the concentration that produces a half-maximal response. As a reminder, the clearance is the volume of plasma or blood freed of the substance per unit of time. A lower clearance goes with a low capacity for elimination.
